Reference: US8318778B2, “Urea glucokinase activators” (Novo Nordisk A/S, priority 2007, dated 2012)

Target: T1, recombinant human glucokinase (Homo sapiens, UniProt P35557)
T1 construct: N-terminal His-tag ((His)8-VEQILA . . . Q466); made in house; host or cells: E. coli
T1 sequence (P35557 17-466 isoform P35557-2): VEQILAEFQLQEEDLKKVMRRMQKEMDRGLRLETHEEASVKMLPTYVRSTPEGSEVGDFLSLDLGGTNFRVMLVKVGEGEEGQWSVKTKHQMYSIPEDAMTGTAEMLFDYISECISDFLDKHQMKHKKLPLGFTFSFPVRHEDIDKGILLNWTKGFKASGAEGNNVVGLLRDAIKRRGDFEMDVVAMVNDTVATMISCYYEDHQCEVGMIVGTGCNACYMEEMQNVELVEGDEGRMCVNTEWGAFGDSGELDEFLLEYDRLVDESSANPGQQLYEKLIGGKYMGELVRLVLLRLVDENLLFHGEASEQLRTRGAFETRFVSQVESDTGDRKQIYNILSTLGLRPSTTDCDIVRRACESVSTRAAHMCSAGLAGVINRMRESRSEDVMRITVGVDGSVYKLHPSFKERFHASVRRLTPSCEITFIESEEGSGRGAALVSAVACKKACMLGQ
Test: Glucokinase Activity Assay (I): spectrometric assay coupled to glucose 6-phosphate dehydrogenase
Format: biochemical
Details: 15 mM glucose
Procedure: Glucokinase activity is assayed spectrometrically coupled to glucose 6-phosphate dehydrogenase to determine compound activation of glucokinase. The final assay contains 50 mM Hepes, pH 7.1, 50 mM KCl, 5 mM MgCl2, 2 mM dithiothreitol, 0.6 mM NADP, 1 mM ATP, 0.195 μM G-6-P dehydrogenase (from Roche, 127 671), 15 nM recombinant human glucokinase.
The purification of His-tagged human glucokinase (hGK) was performed as follows: The cell pellet from 50 ml E. coli culture was resuspended in 5 ml extraction buffer A (25 mM HEPES, pH 8.0, 1 mM MgCl2, 150 mM NaCl, 2 mM mercaptoethanol) with addition of 0.25 mg/ml lysozyme and 50 μg/ml sodium azide. […]
The compound to be tested is added into the well in final 2.5% DMSO concentration in an amount sufficient to give a desired concentration of compound, for instance 1, 5, 10, 25 or 50 μM. […] The plate is incubated at 25° C. for 5 min and kinetics is measured at 340 nm in SpectraMax every 30 seconds for 5 minutes. Results for each compound are expressed as the fold activation of the glucokinase activity compared to the activation of the glucokinase enzyme in an assay without compound after having been subtracted from a “blank”, which is without glucokinase enzyme and without compound. […]
The glucose sensitivity of the compounds are measured at a compound concentration of 10 μM and at glucose concentrations of 5 and 15 mM.

EC50: 289 nM
FA (15 mM) (fold activation of glucokinase activity vs assay without compound): 2.1
SMILES: C[C@H]1CC[C@H](N(CC(F)(F)c2ccccc2)C(=O)Nc2ncc(SCC(=O)O)s2)CC1 [Example 83, {2-[3-(2,2-Difluoro-2-phenyl-ethyl)-3-(trans-4-methyl-cyclohexyl)-ureido]-thiazol-5-ylsulfanyl}-acetic acid]
